Measurements as given in US20060156421A1, “High throughput screening methods for anti-metastatic compounds” (priority 2004, published 2006).

What was measured:
[1] = test system: dRet; experiment: Drosophila screening: rough eye phenotype of GMR-dRet flies fed compound in microtiter wells; type: in vivo, Drosophila melanogaster; conditions: compound in growth medium
Description: (§1) Accordingly, methods, related apparatus and kits for high throughput screening assays involve the preparation of microtiter plates each with multiple wells, wherein each well initially contains one or more Drosophila embryos with a transgene and an amount of a Drosophila growth medium. The embryos develop while feeding on the growth medium. The precise age of the embryos at the time they are plated matters less than the fact that they are all about the same age, to permit accurate evaluation of the possible effects of the candidate compound on larval and pupal development.
To prepare the microtiter plates, for example, 96-well microtiter plates are used, such as those commonly commercially available and typically used for various laboratory assay techniques, including other high throughput drug assay techniques. Into each well is pipetted 50-100 μl of standard Drosophila growth medium. An exemplary range of about 50 to about 100 μl is a balance between (i) providing sufficient food so as not to place undue feeding stress on the developing flies and (ii) providing sufficient air space for the third larval instars to find sufficient wall space to pupate and for minimal stress on the developing larvae and pupae. Any one of several standard Drosophila growth medium recipes as known in the art of breeding Drosophila for research can be used. […]

[2] = test system: dRet^MEN2B; experiment: Drosophila screening: rough eye phenotype of GMR-dRet^MEN2B flies fed compound in microtiter wells; type: in vivo, Drosophila melanogaster
Description: as §1
To prepare the microtiter plates, for example, 96-well microtiter plates are used, such as those commonly commercially available and typically used for various laboratory assay techniques, including other high throughput drug assay techniques. Into each well is pipetted 50-100 μl of standard Drosophila growth medium. An exemplary range of about 50 to about 100 μl is a balance between (i) providing sufficient food so as not to place undue feeding stress on the developing flies and (ii) providing sufficient air space for the third larval instars to find sufficient wall space to pupate and for minimal stress on the developing larvae and pupae. Any one of several standard Drosophila growth medium recipes as known in the art of breeding Drosophila for research can be used.
In an exemplary embodiment, a candidate compound, or cocktail of more than one compound, that has been selected for screening is prepared in EtOH or DMSO/aqueous solution. In an exemplary embodiment, EtOH is used. Although DMSO can be used, it can be toxic if it reaches final concentrations of more than 0.3% of the growth medium. The compound in solution is added and allowed to diffuse through the growth medium for an initial period of about 16 to about 24 hours. Alternatively, the compound in solution is mixed with the food by pipetting, by shaking, or by sonicating. […]

[3] = test system: Drosophila; conditions: Drosophila melanogaster, in vivo
Source text: Lethality of candidate compounds for Drosophila can be used to detect and quantify toxicity of candidate compounds. Well known standard statistical methods are used to help distinguish chance results from real toxic effects. Lethality is quantified, for example, by determining the number of Drosophila that fail to develop successfully to adulthood and applying suitable statistical analyses to determine statistical significance. Lethal dose evaluations can be used to quantify the extent of toxicity. […] In another exemplary example, the emergence of most Drosophila adults within a microwell indicates a lowered probability that an introduced compound is toxic.
FIG. 3 illustrates in part the results of screening compound ZD6474 according to the screening methods of the present invention. […] Therefore, the estimated therapeutic index (ratio of concentrations that are toxic to Drosophila to concentrations that reduce the retinal phenotype is […].

[4] = test system: Ret; conditions: previously tested, Carlomagno et al., 2002; cited from earlier work
[5] = test system: VEGF-class receptors; conditions: literature citations; cited from earlier work

In the case of `COc1cc2c(Nc3ccc(Br)cc3F)ncnc2cc1OCC1CCN(C)CC1` [ZD6474], the “inhibition of severity of the rough eye phenotype of dRet” value [1] is reported as “strongly inhibit”, the “inhibition of severity of the rough eye phenotype of dRet^MEN2B” value ([2]; Drosophila eye, compound in growth medium) is reported as “strongly inhibit” and the “rescue of the dRet^MEN2B phenotype” value ([2]; FIG. 3 panels, varying concentration) is reported as “concentration-dependent”. The “doses at which at least partial rescue was observed” value ([2]; retinal phenotype, lowest effective concentration) was ≥ 0.04 mM, the “concentrations at which toxicity was observed” value [3] was ≥ 2500 µM and the “estimated therapeutic index (ratio of concentrations toxic to Drosophila to concentrations that reduce the retinal phenotype)” value [3] was 31. The “effect on Ret activity in a tissue culture model” value [4] was “reduce Ret activity” and the “efficacy for VEGF-class receptors” value [5] was “some efficacy”.
